Our source for the TGI values is PubChem BioAssay (NCI).

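Tested at 5 concentrations; 48 h exposure; 96-well plates; endpoints linearly interpolated, else capped at highest concentration. TGI: total growth inhibition.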

Common to all, as to test: growth of human tumour cells (NCI), 48 h
Experiment [1] has as its system MALME-3M melanoma.
In experiment [2] the test system is UACC-62 melanoma.
Experiment [3] has as its system RXF 393 renal.
The test system of experiment [4] is UO-31 renal.
The subject of experiment [5] is UACC-257 melanoma.
Experiment [6] relates to HCT-15 colon.
For experiment [7], the system named is OVCAR-3 ovarian.
Experiment [8] deals with SNB-75 CNS.
For experiment [9], the system named is HT29 colon.
Experiment [10] concerns M14 melanoma.
The test system of experiment [11] is SK-MEL-28 melanoma.
Experiment [12] relates to KM12 colon.
In experiment [13] the test system is OVCAR-4 ovarian.
Experiment [14] relates to 786-0 renal.
The subject of experiment [15] is LOX IMVI melanoma.
The subject of experiment [16] is HCT-116 colon.
For experiment [17], the system named is SF-268 CNS.
Experiment [18] has as its system T-47D breast.
The subject of experiment [19] is BT-549 breast.

Consider `CCN(CC)CCC1CCCCN1CC(=O)N1c2ccccc2NC(=O)c2ccccc21` (stereo unspecified), for which the TGI in experiment [1], in experiment [2], in experiment [3], in experiment [4], in experiment [5] and in experiment [6] was greater than 100 µM in each case. For the same compound, the TGI was greater than 100 µM in experiment [7]; 92.6 µM in experiment [8]; greater than 100 µM in experiment [9]; greater than 100 µM in experiment [10]; greater than 100 µM in experiment [11]; greater than 100 µM in experiment [12]. The TGI in experiment [13], in experiment [14], in [15], in experiment [16], in [17] and in experiment [18] was greater than 100 µM throughout.
In the case of `OCC1OC(Oc2cc(O)cc(/C=C/c3ccc(O)cc3)c2)C(O)C(O)C1O` (stereo unspecified), the TGI in experiment [2], in experiment [3], in experiment [4], in experiment [5], in experiment [6] and in experiment [7] was greater than 100 µM each time. In addition, the TGI in [8], in experiment [9], in experiment [11], in [12], in [13] and in [14] was greater than 100 µM each time. Further, the TGI in experiment [15], in [16] and in [19] was greater than 100 µM each time.
`c1cc(CSP234N5CCN2CCN3CCN4CC5)ccc1CSP123N4CCN1CCN2CCN3CC4`: the TGI in experiment [2], in [4], in [5], in [6], in experiment [7] and in experiment [8] was greater than 100 µM each time. Besides, the TGI in experiment [9], in experiment [10], in experiment [11], in experiment [12], in experiment [13] and in experiment [14] was greater than 100 µM throughout. The TGI in experiment [15], in experiment [16], in experiment [17], in experiment [18] and in experiment [19] was greater than 100 µM each time.
Consider `O=c1c2c(c1=O)C1(SCCCS1)c1cc(Cl)ccc1O2`, for which the TGI in experiment [1], in experiment [2], in [3], in experiment [4], in experiment [5] and in [6] was greater than 100 µM throughout. Also, the TGI in experiment [7], in experiment [8], in experiment [9], in [10], in [11] and in experiment [12] was greater than 100 µM each time. Also, the TGI in [13], in experiment [14], in experiment [15], in [16], in experiment [17] and in experiment [19] was greater than 100 µM each time.
As to `N#CCCSC1SC(=C2SC3=C(SCCS3)S2)SC1SCCC#N` (stereo unspecified), the TGI in experiment [2], in [3], in experiment [4], in [5], in experiment [6] and in [7] was greater than 100 µM each time. Also, the TGI in [9], in experiment [10], in experiment [11], in [13], in [14] and in [15] was greater than 100 µM each time. Also, the TGI in experiment [16], in experiment [17], in [18] and in experiment [19] was greater than 100 µM in each case.
Consider `O=C1NC(=S)NC(=O)C1C(c1ccc([N+](=O)[O-])cc1)C1C(=O)NC(=S)NC1=O`, for which the TGI in experiment [2], in [3], in [4], in experiment [5], in [6] and in experiment [7] was greater than 100 µM each time. Also, the TGI in [9], in [10], in experiment [11], in experiment [12], in experiment [13] and in experiment [14] was greater than 100 µM each time. In addition, the TGI in [15], in experiment [16], in experiment [18] and in experiment [19] was greater than 100 µM each time.
As to `CC(C)(C)[Si](C)(C)OCC1OC(n2ccc(=O)[nH]c2=O)C(O[Si](C)(C)C(C)(C)C)[C@@]12O[C@H]2C(N)=O` (stereo partly specified), the TGI in experiment [2] was 99.3 µM; in experiment [4], 19.6 µM; in [5] it was greater than 100 µM; in [6], 28.4 µM; in [7], 25.9 µM; in experiment [8] it was 24.7 µM. The TGI in experiment [9] was 12.4 µM; in [10], 42.9 µM; in experiment [11], greater than 100 µM; in experiment [12], 44.2 µM; in experiment [13] it was 89.5 µM; in experiment [14], 29.9 µM. Besides, the TGI in [15] turned out to be 18.1 µM; in experiment [16] it was 22.1 µM; in experiment [17], 28.2 µM; in [19], 40.2 µM.
Turning to `COc1ccc(C(=O)/C=C/c2ccc(OCCSCCCCCCCCCCSCCOc3ccc(/C=C/C(=O)c4ccc(OC)cc4)cc3)cc2)cc1`, the TGI in [2], in experiment [3], in experiment [4], in [5], in [6] and in [8] was greater than 100 µM in each case. Besides, the TGI in experiment [9], in [10], in experiment [11], in [12], in experiment [13] and in experiment [14] was greater than 100 µM in each case. In addition, the TGI in experiment [16], in experiment [17] and in experiment [18] was greater than 100 µM in each case.
